Structures can show the parent of a compound that is named as a salt.

The nature of the first data set: Accelerated stability study of dabigatran etexilate mesylate (impurity contents by HPLC method 1). Type of data set: physicochemical. As to conditions: content of the named impurity in dabigatran etexilate mesylate of Example 6 after storage in a double polyethylene bag at 40° C. and 75% relative humidity for 3 months; HPLC method 1; area % with respect to dabigatran etexilate. On the procedure:
The chromatographic separation was carried out in a Kromasil 100-5C18, 5 μm, 4.6×250 mm column at 25° C. The mobile phase was prepared by filtering and degassing an acetonitrile/buffer solution (45:55) v/v mixture. The buffer solution was obtained by preparing a 50 mM formic acid solution in water and adjusting the pH to 3.8 with ammonium hydroxide. The chromatograph was equipped with a 254 nm detector and the flow rate was 1.0 mL per minute. 20 μL of the test samples were injected. The samples were prepared by dissolving the appropriate amount of sample in mobile phase, to obtain a concentration of about 1.0 mg/mL. The chromatogram was run for at least 30 min. […] Impurity contents are expressed in area % with respect to dabigatran etexilate.
As for `CCCCCCOC(=O)/N=C(/N)c1ccc(NCc2nc3cc(C(=O)N(CCC(=O)O)c4ccccn4)ccc3n2C)cc1` [Compound (C2), 3-{[(2-{[(4-{[(hexyloxy)carbonyl]carbamimidoyl}phenyl)amino]methyl}-1-methyl-1H-benzimidazol-5-yl)carbonyl](pyridin-2-yl)amino}propanoic acid], the “Compound/Impurity contents (area %) Example 7” value is 1.57 area %.

On to `CCCCCCOC(=O)/N=C(/N)c1ccc(NCc2nc3cc(C(=O)N(CCC(N)=O)c4ccccn4)ccc3n2C)cc1` [Compound (B4), 3-{[(2-{[(4-{[(hexyloxy)carbonyl]carbamimidoyl}phenyl)amino]methyl}-1-methyl-1H-benzimidazol-5-yl)carbonyl](pyridin-2-yl)amino}propanamide], for which the “Compound/Impurity contents (area %) Example 7” value was found to be 0.71 area %.

Take `CCOC(=O)c1ccc2c(c1)nc(CNc1ccc(C(=N)N)cc1)n2C` [Compound (A1), ethyl 2-{[(4-{carbamimidoyl}phenyl)amino]methyl}-1-methyl-1H-benzimidazol-5-carboxylate]: the “Compound/Impurity contents (area %) Example 7” value turned out to be 0.38 area %.

Take `CCCCCCOC(=O)NC(=O)c1ccc(NCc2nc3cc(C(=O)N(CCC(=O)O)c4ccccn4)ccc3n2C)cc1` [Compound (B1), 3-{[(2-{[(4-{[({hexyloxy}carbonyl)amino]carbonyl}phenyl)amino]methyl}-1-methyl-1H-benzimidazol-5-yl)carbonyl](pyridin-2-yl)amino}propanoic acid]: the “Compound/Impurity contents (area %) Example 7” value stood at 3.8 area %.

On to `CCCCCCOC(=O)NC(=O)c1ccc(NCc2nc3cc(C(=O)N(CCC(=O)OCC)c4ccccn4)ccc3n2C)cc1` [Compound (B3), ethyl 3-{[(2-{[(4-{[({hexyloxy}carbonyl)amino]carbonyl}phenyl)amino]methyl}-1-methyl-1H-benzimidazol-5-yl)carbonyl](pyridin-2-yl)amino}propanoate], for which the “Compound/Impurity contents (area %) Example 7” value amounted to 7.62 area %.

Turning to `CCCCCCOC(=O)NC(=O)c1ccc(NCc2nc3cc(C(=O)N(CCC(=O)OC)c4ccccn4)ccc3n2C)cc1` [Compound (B2), methyl 3-{[(2-{[(4-{[({hexyloxy}carbonyl)amino]carbonyl}phenyl)amino]methyl}-1-methyl-1H-benzimidazol-5-yl)carbonyl](pyridin-2-yl)amino}propanoate], the “Compound/Impurity contents (area %) Example 7” value is given as 0.25 area %.

For `Cn1c(CNc2ccc(C(=N)N)cc2)nc2cc(C(=O)N(CCC(=O)O)c3ccccn3)ccc21` [Compound (C1), 3-{[(2-{[(4-{carbamimidoyl}phenyl)amino]methyl}-1-methyl-1H-benzimidazol-5-yl)carbonyl](pyridin-2-yl)amino}propanoic acid, reference compound], the “Compound/Impurity contents (area %) Example 7” value stood at 1.64 area %.

As for `CCCCCCOC(=O)/N=C(/N)c1ccc(NCc2nc3cc(C(=O)N(CCC(=O)OC)c4ccccn4)ccc3n2C)cc1` [Compound (C3), methyl 3-{[(2-{[(4-{[(hexyloxy)carbonyl]carbamimidoyl}phenyl)amino]methyl}-1-methyl-1H-benzimidazol-5-yl)carbonyl](pyridin-2-yl)amino}propanoate], the “Compound/Impurity contents (area %) Example 7” value is recorded as 0.32 area %.

Regarding `CCCCCCOC(=O)/N=C(/N)c1ccc(N)cc1` [Compound (D), 4-{[(hexyloxy)carbonyl]carbamimidoyl}aniline], the “Compound/Impurity contents (area %) Example 7” value was determined as 0.18 area %.

For the compound `CCCCCCOC(=O)/N=C(/N)c1ccc(NCc2nc3cc(C(=O)OCC)ccc3n2C)cc1` [Compound (A2), ethyl 2-{[(4-{[(hexyloxy)carbonyl]carbamimidoyl}phenyl)amino]methyl}-1-methyl-1H-benzimidazol-5-carboxylate], the “Compound/Impurity contents (area %) Example 7” value is reported as 0.42 area %.

The same data set, now with this note: on storage, 40° C. and 75% relative humidity, moisture.
In the case of `CCCCCCOC(=O)NC(=N)c1ccc(NCc2nc3cc(C(=O)N(CCC(=O)OCC)c4ccccn4)ccc3n2C)cc1` [dabigatran etexilate mesylate, reference compound], the “main hydrolysis product on storage” value is on record as “a compound of formula (B), especially compound (B3)”.

Test in a further data set: not given
The following applies: cited from earlier work.
Turning to `CCCCCCOC(=O)NC(=N)c1ccc(NCc2nc3cc(C(=O)N(CCC(=O)OCC)c4ccccn4)ccc3n2C)cc1` [dabigatran etexilate mesylate, reference compound], the “main hydrolysis product in vivo” value was “a compound of formula (D1), namely dabigatran”.

Source of the values: patent US9086390B2, “Dabigatran etexilate and related substances, processes and compositions, and use of the substances as reference standards and markers” (Medichem, S.A., priority 2011, dated 2015).
